{"source": "patent US9309198B2", "about": "“N-[3-(2-carboxyethyl)phenyl]piperidin-1-ylacetamide derivatives and use thereof as activators of soluble guanylate cyclase” (Bayer Pharma Aktiengesellschaft, priority 2012, dated 2016)", "key": {"[1]": {"target": "T1, recombinant guanylate cyclase reporter cell line (sGC, CHO reporter cell) (Rattus norvegicus, UniProt P20595)", "T1 construct": "expressed in transfected cells; host or cells: CHO reporter cell line", "T1 sequence (P20595 1-619)": "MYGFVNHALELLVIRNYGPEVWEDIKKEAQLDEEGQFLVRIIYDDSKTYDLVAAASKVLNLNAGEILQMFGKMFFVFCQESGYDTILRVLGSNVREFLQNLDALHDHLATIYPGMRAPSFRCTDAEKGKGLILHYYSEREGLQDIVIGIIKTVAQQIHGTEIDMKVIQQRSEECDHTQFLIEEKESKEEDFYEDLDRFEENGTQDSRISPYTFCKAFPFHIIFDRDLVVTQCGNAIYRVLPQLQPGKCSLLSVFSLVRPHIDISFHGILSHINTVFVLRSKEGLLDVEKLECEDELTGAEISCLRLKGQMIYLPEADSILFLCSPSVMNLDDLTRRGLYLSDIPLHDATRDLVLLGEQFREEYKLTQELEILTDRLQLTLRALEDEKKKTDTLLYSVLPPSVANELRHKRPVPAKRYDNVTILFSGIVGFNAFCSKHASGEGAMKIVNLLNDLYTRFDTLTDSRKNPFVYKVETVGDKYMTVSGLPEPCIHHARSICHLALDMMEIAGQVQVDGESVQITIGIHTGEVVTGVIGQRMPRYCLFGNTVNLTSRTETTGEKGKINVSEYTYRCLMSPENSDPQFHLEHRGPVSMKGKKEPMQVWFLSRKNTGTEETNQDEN", "T1 sequence (P19686 1-690 partner)": "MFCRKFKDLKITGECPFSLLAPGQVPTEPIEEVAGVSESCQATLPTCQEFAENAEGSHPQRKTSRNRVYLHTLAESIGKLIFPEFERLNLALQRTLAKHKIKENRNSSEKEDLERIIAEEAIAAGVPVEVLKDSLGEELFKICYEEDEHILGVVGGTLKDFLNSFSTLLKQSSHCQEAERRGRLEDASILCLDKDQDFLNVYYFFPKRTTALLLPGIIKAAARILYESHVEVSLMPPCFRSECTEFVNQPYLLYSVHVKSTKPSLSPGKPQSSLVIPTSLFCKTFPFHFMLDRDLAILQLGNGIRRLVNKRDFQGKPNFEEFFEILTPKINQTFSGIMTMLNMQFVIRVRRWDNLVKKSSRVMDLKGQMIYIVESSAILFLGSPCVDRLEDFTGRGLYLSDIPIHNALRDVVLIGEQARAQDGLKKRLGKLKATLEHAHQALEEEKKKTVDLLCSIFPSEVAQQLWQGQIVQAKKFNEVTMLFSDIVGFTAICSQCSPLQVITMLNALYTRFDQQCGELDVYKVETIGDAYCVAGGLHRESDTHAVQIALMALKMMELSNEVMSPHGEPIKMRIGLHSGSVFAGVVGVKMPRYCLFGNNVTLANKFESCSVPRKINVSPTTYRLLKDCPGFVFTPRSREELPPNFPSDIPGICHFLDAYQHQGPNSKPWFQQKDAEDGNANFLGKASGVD", "test": "Effect on a recombinant guanylate cyclase reporter cell line (CHO reporter cell)", "assay_type": "cell-based", "method": "B-2. Effect on a Recombinant Guanylate Cyclase Reporter Cell Line The cellular activity of the compounds according to the invention is determined using a recombinant guanylate cyclase reporter cell line, as described in F. Wunder et al., Anal. Biochem. 339, 104-112 (2005)."}, "[2]": {"target": "T2, soluble guanylate cyclase (sGC) (Rattus norvegicus, UniProt P20595)", "T2 construct": "made in house", "T2 sequence (P20595 1-619)": "T1 sequence (P20595 1-619)", "T2 sequence (P19686 1-690 partner)": "T1 sequence (P19686 1-690 partner)", "test": "Stimulation of sGC enzyme activity (PPi detection, luciferase luminescence)", "assay_type": "biochemical", "settings": "for EC50: read-out: EC50 (half-maximal effective concentration), activating action at the sGC enzyme in vitro", "method": "B-3. Stimulation of sGC Enzyme Activity\nSoluble guanylate cyclase (sGC) converts on stimulation GTP into cGMP and pyrophosphate (PPi). PPi is detected with the aid of the assay described below. The signal produced in the assay increases as the reaction progresses and serves as a measure of the sGC enzyme activity under the given stimulation.\nTo carry out the assay, 29 μl of enzyme solution [0-10 nM soluble guanylate cyclase (prepared according to Hönicka et al., J. Mol. Med. 77, 14-23 (1999)) in 50 mM TEA, 2 mM MgCl2, 0.1% BSA (fraction V), 0.005% Brij®, pH 7.5] are initially introduced into a microplate, and 1 μl of the substance to be tested (as a serially diluted solution in DMSO) is added. The mixture is incubated at room temperature for 10 min. Then 20 μl of detection mix [1.2 nM Firefly Luciferase (Photinus pyralis luciferase, Promega), 29 μM dehydroluciferin (prepared according to Bitler & McElroy, Arch. Biochem. Biophys. 72, 358 (1957)), 122 μM luciferin (Promega), 153 μM ATP (Sigma) and 0.4 mM DTT (Sigma) in 50 mM TEA, 2 mM MgCl2, 0.1% BSA (fraction V), 0.005% Brij®, pH 7.5] are added. The enzyme reaction is started by adding 20 μl of substrate solution [1.25 mM guanosine 5′-triphosphate (Sigma) in 50 mM TEA, 2 mM MgCl2, 0.1% BSA (fraction V), 0.005% Brij®, pH 7.5] and measured continuously in a luminometer. The extent of the stimulation by the substance to be tested can be determined relative to the signal of the unstimulated reaction.\nThe activation of haem-free guanylate cyclase is examined by addition of 25 μM of 1H-1,2,4-oxadiazolo[4,3-a]quinoxalin-1-one (ODQ) to the enzyme solution and subsequent incubation for 30 minutes and compared to the stimulation of the native enzyme."}}, "note": "Structures can show the parent of a compound that is named as a salt."}
{"smiles": "CCC1CCN(C(C(=O)Nc2cc(CCC(=O)O)ccc2Cl)C(C)C(F)(F)F)CC1", "note": "(single isomer, unassigned) [Example 11, 3-(4-chloro-3-{[2-(4-ethylpiperidin-1-yl)-4,4,4-trifluoro-3-methylbutanoyl]amino}phenyl)propanoic acid]", "values": [{"measurement": "MEC (minimum effective concentration), sGC-activating activity in the CHO reporter cell in vitro", "setting": "[1]", "value": 10, "unit": "nM"}, {"measurement": "MEC (minimum effective concentration), activating action at the sGC enzyme in vitro", "setting": "[2]", "value": 17, "unit": "nM"}, {"measurement": "EC50", "setting": "[2]", "value": 390, "unit": "nM"}]}
{"smiles": "CCC1CCN([C@@H](C(=O)Nc2cc(CC3(C(=O)O)CC3)ccc2Cl)[C@@H](C)C(F)(F)F)CC1", "note": "[Example 26, 1-(4-Chloro-3-{[(2R,3R)-2-(4-ethylpiperidin-1-yl)-4,4,4-trifluoro-3-methylbutanoyl]amino}benzyl)cyclopropanecarboxylic acid]", "values": [{"measurement": "MEC (minimum effective concentration), sGC-activating activity in the CHO reporter cell in vitro", "setting": "[1]", "value": 1, "unit": "nM"}, {"measurement": "MEC (minimum effective concentration), activating action at the sGC enzyme in vitro", "setting": "[2]", "value": 0.8, "unit": "nM"}, {"measurement": "EC50", "setting": "[2]", "value": 10, "unit": "nM"}]}
{"smiles": "C[C@H]([C@H](C(=O)Nc1cc(C[C@H](C)C(=O)O)ccc1Cl)N1CCC2(CC1)CC2)C(F)(F)F", "note": "(single isomer, unassigned) [Example 46]", "values": [{"measurement": "MEC (minimum effective concentration), sGC-activating activity in the CHO reporter cell in vitro", "setting": "[1]", "value": 10, "unit": "nM"}, {"measurement": "MEC (minimum effective concentration), activating action at the sGC enzyme in vitro", "setting": "[2]", "value": 17, "unit": "nM"}, {"measurement": "EC50", "setting": "[2]", "value": 210, "unit": "nM"}]}
{"smiles": "C[C@H](CC(=O)O)c1ccc(Cl)c(NC(=O)[C@@H]([C@@H](C)C(F)(F)F)N2CCC3(CC2)CC3)c1", "note": "(single isomer, unassigned) [Example 47]", "values": [{"measurement": "MEC (minimum effective concentration), sGC-activating activity in the CHO reporter cell in vitro", "setting": "[1]", "value": 1, "unit": "nM"}, {"measurement": "MEC (minimum effective concentration), activating action at the sGC enzyme in vitro", "setting": "[2]", "value": 3.9, "unit": "nM"}, {"measurement": "EC50", "setting": "[2]", "value": 81, "unit": "nM"}]}
{"smiles": "CCC1CCN([C@@H](C(=O)Nc2cc(CC3(C(=O)O)CC3)ccc2F)[C@@H](C)C(F)(F)F)CC1", "note": "(single isomer, unassigned) [Example 39]", "values": [{"measurement": "MEC (minimum effective concentration), sGC-activating activity in the CHO reporter cell in vitro", "setting": "[1]", "value": 0.3, "unit": "nM"}, {"measurement": "MEC (minimum effective concentration), activating action at the sGC enzyme in vitro", "setting": "[2]", "value": 1.1, "unit": "nM"}, {"measurement": "EC50", "setting": "[2]", "value": 7.9, "unit": "nM"}]}
{"smiles": "CC1CCN(C(C(=O)Nc2cc(CC3(C(=O)O)CC3)ccc2F)C(C)C(F)(F)F)CC1", "note": "(single isomer, unassigned; (+)) [Example 36, (+)-1-(4-Fluoro-3-{[4,4,4-trifluoro-3-methyl-2-(4-methylpiperidin-1-yl)butanoyl]amino}benzyl)cyclopropanecarboxylic acid]", "values": [{"measurement": "MEC (minimum effective concentration), sGC-activating activity in the CHO reporter cell in vitro", "setting": "[1]", "value": 2.3, "unit": "nM"}, {"measurement": "MEC (minimum effective concentration), activating action at the sGC enzyme in vitro", "setting": "[2]", "value": 3, "unit": "nM"}, {"measurement": "EC50", "setting": "[2]", "value": 25, "unit": "nM"}]}
{"smiles": "CC1CCN([C@@H](C(=O)Nc2cc([C@H](C)CC(=O)O)ccc2Cl)[C@@H](C)C(F)(F)F)CC1", "note": "(single isomer, unassigned) [Example 48]", "values": [{"measurement": "MEC (minimum effective concentration), sGC-activating activity in the CHO reporter cell in vitro", "setting": "[1]", "value": 3, "unit": "nM"}, {"measurement": "MEC (minimum effective concentration), activating action at the sGC enzyme in vitro", "setting": "[2]", "value": 1.1, "unit": "nM"}, {"measurement": "EC50", "setting": "[2]", "value": 33, "unit": "nM"}]}
{"smiles": "O=C(Nc1cc(CC2(C(=O)O)CC2)ccc1F)C(C1CCCC1)N1CCc2ccccc2C1", "note": "(racemic) [Example 53, rac-1-(3-{[Cyclopentyl(3,4-dihydroisoquinolin-2(1H)-yl)acetyl]amino}-4-fluorobenzyl)cyclopropanecarboxylic acid trifluoroacetate]", "values": [{"measurement": "MEC (minimum effective concentration), sGC-activating activity in the CHO reporter cell in vitro", "setting": "[1]", "value": 100, "unit": "nM"}, {"measurement": "MEC (minimum effective concentration), activating action at the sGC enzyme in vitro", "setting": "[2]", "value": 160, "unit": "nM"}, {"measurement": "EC50", "setting": "[2]", "value": 840, "unit": "nM"}]}
{"smiles": "C[C@H]([C@H](C(=O)Nc1cc(CCC(=O)O)ccc1F)N1CCC(C2CC2)CC1)C(F)(F)F", "note": "[Example 18]", "values": [{"measurement": "MEC (minimum effective concentration), sGC-activating activity in the CHO reporter cell in vitro", "setting": "[1]", "value": 30, "unit": "nM"}, {"measurement": "MEC (minimum effective concentration), activating action at the sGC enzyme in vitro", "setting": "[2]", "value": 6.9, "unit": "nM"}, {"measurement": "EC50", "setting": "[2]", "value": 540, "unit": "nM"}]}
{"smiles": "CCC1CCN(C(C(=O)Nc2cc(CC3(C(=O)O)CC3)ccc2F)C(C)C(F)(F)F)CC1", "note": "(single isomer, unassigned) [Example 8, 1-(3-{[2-(4-ethylpiperidin-1-yl)-4,4,4-trifluoro-3-methylbutanoyl]amino}-4-fluorobenzyl)cyclopropanecarboxylic acid]", "values": [{"measurement": "MEC (minimum effective concentration), sGC-activating activity in the CHO reporter cell in vitro", "setting": "[1]", "value": 0.3, "unit": "nM"}, {"measurement": "MEC (minimum effective concentration), activating action at the sGC enzyme in vitro", "setting": "[2]", "value": 1.2, "unit": "nM"}, {"measurement": "EC50", "setting": "[2]", "value": 21, "unit": "nM"}]}
